Data published in PubChem BioAssay (NCI).
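Growth conditions: 96-well plates. Treatment: test compound, 48 hours, 5 concentrations. Analysis: linear interpolation between bracketing concentrations; unreached endpoints set to highest concentration. Here, GI50 denotes the concentration required for 50% inhibition of growth. TGI: concentration producing complete growth inhibition.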

Columns and labels:
Test in all cases: NCI tumour cell line growth inhibition, 48 h
SN12C renal = tested on: SN12C renal
SNB-19 CNS = tested on: SNB-19 CNS
SK-OV-3 ovarian = tested on: SK-OV-3 ovarian
HL-60(TB) leukemia = tested on: HL-60(TB) leukemia
HT29 colon = tested on: HT29 colon
SNB-75 CNS = tested on: SNB-75 CNS
SF-295 CNS = tested on: SF-295 CNS
M14 melanoma = tested on: M14 melanoma
DU-145 prostate = tested on: DU-145 prostate
TK-10 renal = tested on: TK-10 renal

Row | Structure (SMILES) | TGI (SN12C renal) [µM] | TGI (SNB-19 CNS) [µM] | TGI (SK-OV-3 ovarian) [µM] | TGI (HL-60(TB) leukemia) [µM] | TGI (HT29 colon) [µM] | TGI (SNB-75 CNS) [µM] | TGI (SF-295 CNS) [µM] | TGI (M14 melanoma) [µM] | TGI (DU-145 prostate) [µM] | TGI (TK-10 renal) [µM] | GI50 (DU-145 prostate) [µM] | GI50 (TK-10 renal) [µM] | GI50 (SK-OV-3 ovarian) [µM] | GI50 (HL-60(TB) leukemia) [µM] | GI50 (HT29 colon) [µM] | GI50 (SN12C renal) [µM] | GI50 (SNB-19 CNS) [µM] | GI50 (SNB-75 CNS) [µM] | GI50 (SF-295 CNS) [µM] | GI50 (M14 melanoma) [µM]
1 | O=C(O)C(Br)Cc1ccc2c(c1)OCO2 (stereo not drawn) | > 100 | > 100 | > 100 | > 100 | > 100 | > 100 | > 100 | > 100 | – | – | – | – | – | – | – | – | – | – | – | –
2 | COc1cc2c3c(c4cc(OC)c(OC)cc4c2cc1OC)[C@H](O)[C@@H]1CCCN1C3 | 1.42 | > 100 | 1.69 | 3.49 | 1.53 | 0.252 | 1.64 | 2.06 | 1.45 | 1.55 | – | – | – | – | – | – | – | – | – | –
3 | CSc1sc(=S)sc1SC | > 100 | > 100 | > 100 | > 31.6 | > 100 | > 90 | > 100 | – | – | – | – | – | – | – | – | – | – | – | – | –
4 | COc1cc2c3c(n(C4CCNCC4)c(=O)c2cc1OC)-c1cc2c(cc1C3=O)OCO2 | – | – | 1.75 | 1.49 | 2.33 | – | – | – | 1.55 | 3.65 | 0.423 | 1.8 | 0.402 | 0.364 | 0.264 | – | – | – | – | –
5 | S=C1NN=C2C(=C3CCCC4C5CCCCC5N2C34)N1 (stereo not drawn) | – | > 100 | > 100 | > 100 | – | – | > 100 | > 100 | > 100 | > 100 | – | – | – | – | – | – | – | – | – | –
6 | C#C[C@@]1(O)[C@@H](CO)O[C@@H](n2cc(F)c3c(N)ncnc32)[C@@H]1O | 4.74 | 13.7 | 2.09 | 3.53 | > 100 | 2.32 | 2.33 | 2.39 | 13.4 | 6.56 | 0.354 | 0.736 | 0.285 | 0.436 | 0.207 | 0.302 | 0.524 | 1.03 | 0.653 | 0.481
7 | C[C@H](CCC1=NCCN1)[C@H]1CC[C@H]2[C@@H]3CC[C@@H]4C[C@H](O)CC[C@]4(C)[C@H]3CC[C@]12C | 37.3 | 36.3 | 45.3 | – | 3.65 | 22 | 10.4 | > 22.6 | 35.8 | 23.2 | – | – | – | – | – | – | – | – | – | –
8 | CCCCCCCCCCCCCCCCOCCCOP(=O)(O)C1CCCN(O)C1=O (stereo not drawn) | 12.8 | 14.5 | 16.7 | 10.3 | 83.5 | 15 | 11.3 | – | > 100 | 23.4 | 2.53 | 0.738 | 3.62 | 1.31 | 0.953 | 1.53 | 0.63 | 2.13 | 2.44 | –
9 | COc1ccc(/C(Cl)=C(\C=O)c2ccc(Cl)c(Cl)c2)cc1OC | 18.7 | 65.9 | 75.4 | 6.67 | 8.77 | 0.938 | 15.9 | 26.3 | – | 51.4 | – | – | – | – | – | – | – | – | – | –
